Here are results for 18 molecules from patent US20200062773A1, “4,4a,5,7-TETRAHYDRO-3H-FURO[3,4-b]PYRIDINYL COMPOUNDS” (Janssen Pharmaceutlca NV, priority 2016, published 2020).

Assay [1] deals with Abeta 1-42 produced and secreted into the medium of human neuroblastoma SKNBE2 cells. The experiment in a line: Cellular αLisa assay in SKNBE2 cells. Format: cell-based. Conditions: human neuroblastoma SKNBE2 cells expressing hAPP695, 18 hours incubation; for IC50: Homo sapiens, SKNBE2, 18 h, read-out: Cellular αLisa assay in SKNBE2 cells Abeta 42 pIC50 (converted). The procedure: Cellular αLisa Assay in SKNBE2 Cells
In two αLisa assays the levels of Abeta 1-42 produced and secreted into the medium of human neuroblastoma SKNBE2 cells are quantified. The assay is based on the human neuroblastoma SKNBE2 expressing the wild type Amyloid Precursor Protein (hAPP695). The compounds are diluted and added to these cells, incubated for 18 hours and then measurements of Abeta 1-42 are taken. Abeta 1-42 are measured by sandwich αLisa. αLisa is a sandwich assay using biotinylated antibody AbN/25 attached to streptavidin coated beads and antibody cAb42/26 conjugated acceptor beads for the detection of Abeta 1-42 respectively. In the presence of Abeta 1-42, the beads come into close proximity. The excitation of the donor beads provokes the release of singlet oxygen molecules that trigger a cascade of energy transfer in the acceptor beads, resulting in light emission. Light emission is measured after 1 hour incubation (excitation at […] and emission at 615 nm).
(§1) A best-fit curve is fitted by a minimum sum of squares method to the plot of % Controlmin versus compound concentration. From this an IC50 value (inhibitory concentration causing 50% inhibition of activity) can be obtained.

The next assay deals with T1, BACE2 (Homo sapiens, UniProt Q9Y5Z0).
T1 construct: recombinant BACE2 protein in a final concentration of 0.4 μg/ml
T1 sequence (Q9Y5Z0 63-518): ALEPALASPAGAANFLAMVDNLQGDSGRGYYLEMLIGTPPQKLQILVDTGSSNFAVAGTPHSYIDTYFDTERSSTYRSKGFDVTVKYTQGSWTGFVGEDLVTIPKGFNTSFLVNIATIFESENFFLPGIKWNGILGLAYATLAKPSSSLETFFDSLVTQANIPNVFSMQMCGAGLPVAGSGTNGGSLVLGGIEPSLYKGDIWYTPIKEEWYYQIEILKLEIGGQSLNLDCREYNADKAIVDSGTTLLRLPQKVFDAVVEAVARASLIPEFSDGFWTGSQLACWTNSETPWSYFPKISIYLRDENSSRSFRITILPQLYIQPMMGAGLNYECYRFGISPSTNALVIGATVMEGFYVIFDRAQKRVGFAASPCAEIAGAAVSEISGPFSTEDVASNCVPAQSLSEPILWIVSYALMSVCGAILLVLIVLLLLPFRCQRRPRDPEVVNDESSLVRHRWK
Description: BACE2 biochemical FRET based assay. The conditions noted are these: recombinant BACE2, 450 minutes at room temperature, pH 5.0; for IC50: read-out: Biochemical FRET based assay pIC50 (converted).
Source text: BACE2 Biochemical FRET Based Assay
(§2) This assay is a Fluorescence Resonance Energy Transfer Assay (FRET) based assay. The substrate for this assay contains the ‘Swedish’ Lys-Met/Asn-Leu mutation of the amyloid precursor protein (APP) beta-site APP-cleaving enzyme cleavage site. This substrate also contains two fluorophores: (7-methoxycoumarin-4-yl) acetic acid (Mca) is a fluorescent donor with excitation wavelength at 320 nm and emission at 405 nm and 2,4-Dinitrophenyl (Dnp) is a proprietary quencher acceptor. […] Upon cleavage by the beta-site APP-cleaving enzyme, the fluorophore Mca is separated from the quenching group Dnp, restoring the full fluorescence yield of the donor. The increase in fluorescence is linearly related to the rate of proteolysis.
Briefly in a 384-well format recombinant BACE2 protein in a final concentration of 0.4 μg/ml is incubated for 450 minutes at room temperature with 10 μM substrate in incubation buffer (50 mM Citrate buffer pH 5.0, 0.05% PEG, no DMSO) in the absence or presence of compound. Next the amount of proteolysis is directly measured by fluorescence measurement at T=0 and T=450 (excitation at 320 nm and emission at 405 nm). Results are expressed in RFU (Relative Fluorescence Units), as difference between T450 and T0.
as §1

The next assay has as its target T2, BACE1 (Homo sapiens, UniProt P56817).
T2 construct: recombinant BACE1 protein in a final concentration of 1 μg/ml
Description: BACE1 biochemical FRET based assay. Conditions: Method 1: recombinant BACE1 1 μg/ml, 120 min at room temperature, pH 5.0; for IC50: read-out: Biochemical FRET based assay pIC50 (converted).
Source text: BACE1 Biochemical Fret Based Assay
as §2, with “this assay is an APP derived 13 amino acids peptide that contains the” for “this assay contains the”, “cleavage by BACE1, the fluorophore” for “cleavage by the beta-site APP-cleaving enzyme, the fluorophore”
Briefly in a 384-well format recombinant BACE1 protein in a final concentration of 1 μg/ml is incubated for 120 minutes at room temperature with 10 μm substrate in incubation buffer (40 mM Citrate buffer pH 5.0, 0.04% PEG, 4% DMSO) in the absence or presence of compound. Next the amount of proteolysis is directly measured by fluorescence measurement at T=0 and T=120 (excitation at 320 nm and emission at 405 nm). Results are expressed in RFU (Relative Fluorescence Units), as difference between T120 and T0.
as §1

T2 sequence (P56817 46-501): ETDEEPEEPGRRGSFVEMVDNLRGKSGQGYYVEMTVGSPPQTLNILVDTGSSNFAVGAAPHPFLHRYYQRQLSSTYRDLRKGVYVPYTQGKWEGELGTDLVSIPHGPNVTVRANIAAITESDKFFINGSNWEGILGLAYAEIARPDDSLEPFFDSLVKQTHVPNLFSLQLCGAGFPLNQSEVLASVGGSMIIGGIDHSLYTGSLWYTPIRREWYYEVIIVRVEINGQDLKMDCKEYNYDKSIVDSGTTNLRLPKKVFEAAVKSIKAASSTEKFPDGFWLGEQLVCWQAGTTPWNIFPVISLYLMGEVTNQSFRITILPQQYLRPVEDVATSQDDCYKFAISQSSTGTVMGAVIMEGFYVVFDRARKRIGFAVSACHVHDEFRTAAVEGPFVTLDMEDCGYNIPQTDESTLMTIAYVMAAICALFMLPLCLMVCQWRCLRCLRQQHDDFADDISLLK

On to `C[C@@H]1OC[C@@]2(c3cc(NC(=O)c4ccc(C#N)cn4)ccc3F)N=C(N)[C@](C)(C#N)C[C@@H]12` [6c], for which, in assay [1], the “Cellular αLisa assay in SKNBE2 cells Abeta 42 pIC50” value (shortened to “Cellular αLisa assay”) is 5.14. In addition, the “Biochemical FRET based assay pIC50” value is less than 5 on BACE2 and 5.12 on BACE1.

`C[C@]1(C#N)C[C@H]2[C@H](C(F)(F)F)OC[C@@]2(c2cc(NC(=O)c3cnc(OCF)cn3)ccc2F)N=C1N` [7c]: the “Cellular αLisa assay” value in assay [1] came to 5.32. For the same molecule, the “Biochemical FRET based assay pIC50” value at BACE2 is less than 5; at BACE1 it was 5.97.

On to `C[C@]1(C#N)C[C@@H]2[C@@H](C(F)(F)F)OC[C@]2(c2cc(NC(=O)c3cnc(OCF)cn3)ccc2F)N=C1N` [7e], for which the “Cellular αLisa assay” value in assay [1] is recorded as 7.33. The “Biochemical FRET based assay pIC50” value is 6.24 at BACE2 and 7.68 at BACE1.

Turning to `C[C@@]1(C#N)C[C@H]2[C@H](C(F)(F)F)OC[C@@]2(c2cc(NC(=O)c3cnc(OCF)cn3)ccc2F)N=C1N` [7f], in assay [1], the “Cellular αLisa assay” value is recorded as 5.43. In addition, the “Biochemical FRET based assay pIC50” value at BACE2 was less than 5; at BACE1, 5.74.

Turning to `C[C@@]1(C#N)C[C@@H]2[C@@H](C(F)(F)F)OC[C@]2(c2cc(NC(=O)c3ncc(Cl)cn3)ccc2F)N=C1N` [8c], the “Cellular αLisa assay” value in assay [1] was 8.17. For the same molecule, the “Biochemical FRET based assay pIC50” value is listed as 8.46 on BACE2 and 8.75 on BACE1.

As for `C[C@]1(C#N)C[C@H]2[C@H](C(F)(F)F)OC[C@@]2(c2cc(NC(=O)c3ncc(Cl)cn3)ccc2F)N=C1N` [8d], the “Cellular αLisa assay” value in assay [1] was 5.1. Besides, the “Biochemical FRET based assay pIC50” value at BACE2 was 5.08; on BACE1 it was 5.37.

In the case of `N#Cc1ccc(C(=O)Nc2ccc(F)c([C@]34CO[C@H](C(F)(F)F)[C@H]3CCC(N)=N4)c2)nc1` [11a], the “Cellular αLisa assay” value in assay [1] is reported as 8.58. Also, the “Biochemical FRET based assay pIC50” value was 6.88 at BACE2 and 8.53 at BACE1.

`Cl.NC1=N[C@@]2(c3cc(NC(=O)c4ccc(F)cn4)ccc3F)CO[C@H](C(F)(F)F)[C@H]2CC1` [12c]: in assay [1], the “Cellular αLisa assay” value stood at 8.13. Besides, the “Biochemical FRET based assay pIC50” value is given as 7.26 at BACE2 and 7.95 on BACE1.

Regarding `CC(F)(F)[C@H]1OC[C@]2(c3cc(NC(=O)c4cnc(-n5cncn5)cn4)ccc3F)N=C(N)[C@](C)(C#N)C[C@H]12` [16a], the IC50 was 16.6 nM in assay [1], 363 nM on BACE2 and 4.9 nM at BACE1.

As to `CC(F)(F)[C@H]1OC[C@]2(c3cc(NC(=O)c4ccc(C#N)cn4)ccc3F)N=C(N)[C@](C)(C#N)C[C@H]12` [17a], the IC50 is 2.14 nM in assay [1], 21.4 nM at BACE2 and 1.58 nM at BACE1.

Take `COc1cc(C(=O)Nc2ccc(F)c([C@]34CO[C@H](C(C)(F)F)[C@H]3C[C@@](C)(C#N)C(N)=N4)c2)ncn1` [18a]: the IC50 was 138 nM in assay [1], 1200 nM on BACE2 and 24.5 nM on BACE1.

As to `CC(C)(F)[C@H]1OC[C@]2(c3cc(NC(=O)c4ccc(C#N)cn4)ccc3F)N=C(N)[C@@](C)(C#N)C[C@H]12` [21b], the results for the IC50 (in assay [1]; at BACE2; at BACE1) were 19.5 nM, 708 nM and 10.5 nM, respectively.

`C[C@@]1(C#N)C[C@@H]2[C@@H](CF)OC[C@]2(c2cc(NC(=O)c3cnc(OCF)cn3)ccc2F)N=C1N` [22a]: the IC50 was 13.2 nM in assay [1], 74.1 nM on BACE2 and 4.79 nM at BACE1.

For the molecule `C[C@@]1(C#N)C[C@@H]2[C@@H](CF)OC[C@]2(c2cc(NC(=O)c3cnc(-n4cncn4)cn3)ccc2F)N=C1N` [23a], the IC50 in assay [1] is 25.7 nM; at BACE2 it was 355 nM; on BACE1, 12.3 nM.

For `C[C@]1(C#N)C[C@@H]2[C@@H](CF)OC[C@]2(c2cc(NC(=O)c3ccc(C#N)cn3)ccc2F)N=C1N` [24b], the IC50 in assay [1] is 31.6 nM; at BACE2, 158 nM; on BACE1, 14.5 nM.

Consider `C[C@@]1(C#N)C[C@@H]2[C@@H](C(F)F)OC[C@]2(c2cc(NC(=O)c3cnc(-n4cncn4)cn3)ccc2F)N=C1N` [26a], for which the IC50 in assay [1] is 31.6 nM; on BACE2 it was 105 nM; at BACE1 it was 9.77 nM.

Regarding `C[C@@]1(C#N)C[C@@H]2[C@@H](C(F)F)OC[C@]2(c2cc(NC(=O)c3ccc(C#N)cn3)ccc2F)N=C1N` [27a], the IC50 in assay [1] was 6.31 nM; at BACE2 it was 36.3 nM; on BACE1, 2.82 nM.

Take `CC1OCC2(c3cc(NC(=O)c4ccc(OC(F)F)cn4)ccc3F)N=C(N)C(C)(C#N)CC12` (stereo not drawn) [compound 35]: the IC50 in assay [1] is 10 nM; on BACE2, 85.1 nM; at BACE1 it was 6.76 nM.
